In US6875451B2, “Compositions and methods for the treatment of primary and metastatic neoplastic diseases using arsenic compounds” (PolaRx Biopharmaceuticals Inc., priority 1997, dated 2005):

Key:
Type in all cases: cell-based
A498 [1] = assay: SRB growth assay, 2 days exposure, renal cancer
Method: (§1) Arsenic trioxide (1 mg/ml, 10 mg/ampoule, manufactured by Taylor Pharmaceuticals, Decatur, Ill.) was tested at five concentrations each at 10-fold dilutions, i.e., 10^−5, 10^−6, 10^−7, 10^−8 and 10^−9 μg/ml.
(§2) The in vitro tests were performed by incubating the test cells in the presence of the indicated concentration of arsenic trioxide under standard culture conditions for a designated period of time, which is followed by a sulforhodamine B (SRB) protein assay to estimate cell viability or growth. The cell lines are organized into subpanels according to the origin of the cell lines, e.g., leukemia, breast cancer, etc. A description of the cell lines and method of testing is described in Monk et al. (1997, Anticancer Drug Des. 12:533-41) and Weinstein et al., (1997, Science 275:343-9), which are incorporated herein in their entirety.
(§3) The measurement of an effect is expressed in Percentage Growth (PG). The measured effect of the compound on a cell line is calculated according to one or the other of the following two expressions: If (Mean ODtest−Mean ODzero)≧0. then PG=100×(Mean ODtest−Mean ODzero)/(Mean ODctrl−Mean ODzero) If (Mean ODtest−Mean ODzero)<0. then PG=100×(Mean ODtest−Mean ODzero)/(Mean ODzero where: • Mean ODzero=the average of optical density measurements of SRB-derived color just before exposure of cells to the test compounds; • Mean ODtest=the average of optical density measurements of SRB-derived color after exposure of cells to the test compound for a designated period of time; and • Mean ODctrl=the average of optical density measurements of SRB-derived color after with no exposure of cells to the test compound for a designated period of time
(§4) The first two columns describe the subpanel (e.g., leukemia) and cell line (e.g., CCRF-CEM) involved. The next two columns list the Mean ODzero and Mean ODctrl; the next five columns list the Mean ODtest for each of five different concentrations. Each concentration is expressed as the log10 (molar or μg/ml). The next five columns list the calculated PGs for each concentration. The response parameters GI50, TGI and LC50 are interpolated values representing the concentrations at which the PG is +50, 0, and −50, respectively. Sometimes these response parameters cannot be obtained by interpolation. If, for instance, all of the PGs in a given row exceed +50, then none of the three parameters can be obtained by interpolation. In such a case, the value given for each response parameter is the highest concentration tested and is preceded by a “>” sign. This practice is extended similarly to the other possible situations where a response parameter cannot be obtained by interpolation.
(§5) In the first set, the cells from 56 different cancer cell lines were exposed to five concentrations of arsenic trioxide continuously for two days prior to performing the SRB assay. In the second set, the cells from 50 different cell lines (a subset of the first 56 cell lines, plus the renal cancer cell line 786-0) were exposed continuously for six days prior to the SRB assay.

CAKI-1 = assay: SRB growth assay, 2 days exposure, renal cancer
Method: as §1, §2, §3, §4, §5

RXE 393 = assay: SRB growth assay, 2 days exposure, renal cancer
Method: as §1, §2, §3, §4, §5

SN12C = assay: SRB growth assay, 2 days exposure, renal cancer
Method: as §1, §2, §3, §4, §5

TX-10 = assay: SRB growth assay, 2 days exposure, renal cancer
Method: as §1, §2, §3, §4, §5

A498 [2] = assay: SRB growth assay, 6 days exposure, renal cancer; conditions: A498, 6 days
Method: as §1, §2, §3, §4, §5

RXF 393 = assay: SRB growth assay, 6 days exposure, renal cancer; conditions: RXF393, 6 days
Method: as §1, §2, §3, §4, §5

TK-10 = assay: SRB growth assay, 6 days exposure, renal cancer; conditions: TK-10, 6 days
Method: as §1, §2, §3, §4, §5

[3] = test system: 56 different cancer cell lines; assay: NCI cancer cell line panel, SRB assay, first set, 2 days exposure (whole panel, mean graph)
Method: as §1, §2, §3
The first two columns describe the subpanel (e.g., leukemia) and cell line (e.g., CCRF-CEM) involved. The next two columns list the Mean ODzero and Mean ODctrl; the next five columns list the Mean ODtest for each of five different concentrations. Each concentration is expressed as the log10 (molar or μg/ml). The next five columns list the calculated PGs for each concentration. […]

arsenic trioxide
TGI (A498 [1]): 0.00971 ng/mL | Percent Growth (A498 [1]; log10 conc −4.9): −11% | Percent Growth (A498 [1]; log10 conc −5.9): 84% | Percent Growth (A498 [1]; log10 conc −6.9): 89% | Percent Growth (A498 [1]; log10 conc −7.9): 93% | Percent Growth (A498 [1]; log10 conc −8.9): 105% | TGI (CAKI-1): 0.00913 ng/mL | Percent Growth (CAKI-1; log10 conc −4.9): −13% | Percent Growth (CAKI-1; log10 conc −5.9): 78% | Percent Growth (CAKI-1; log10 conc −6.9): 128% | Percent Growth (CAKI-1; log10 conc −7.9): 103% | Percent Growth (CAKI-1; log10 conc −8.9): 120% | TGI (RXE 393): >0.0126 ng/mL | Percent Growth (RXE 393; log10 conc −4.9): 7% | Percent Growth (RXE 393; log10 conc −5.9): 67% | Percent Growth (RXE 393; log10 conc −6.9): 109% | Percent Growth (RXE 393; log10 conc −7.9): 74% | Percent Growth (RXE 393; log10 conc −8.9): 23% | TGI (SN12C): 0.00696 ng/mL | Percent Growth (SN12C; log10 conc −4.9): −28% | Percent Growth (SN12C; log10 conc −5.9): 81% | Percent Growth (SN12C; log10 conc −6.9): 88% | Percent Growth (SN12C; log10 conc −7.9): 96% | Percent Growth (SN12C; log10 conc −8.9): 97% | TGI (TX-10): >0.0126 ng/mL | Percent Growth (TX-10; log10 conc −4.9): 55% | Percent Growth (TX-10; log10 conc −5.9): 96% | Percent Growth (TX-10; log10 conc −6.9): 102% | Percent Growth (TX-10; log10 conc −7.9): 96% | Percent Growth (TX-10; log10 conc −8.9): 98% | TGI (A498 [2]): 4.85E−06 | Mean Optical Densities (A498 [2]; Log 10 Concentration −4.9): 0.025 | Percent Growth (A498 [2]; Log 10 Concentration −4.9): −52% | Mean Optical Densities (A498 [2]; Log 10 Concentration −5.9): 0.558 | Percent Growth (A498 [2]; Log 10 Concentration −5.9): 73% | Mean Optical Densities (A498 [2]; Log 10 Concentration −6.9): 0.837 | Percent Growth (A498 [2]; Log 10 Concentration −6.9): 114% | Mean Optical Densities (A498 [2]; Log 10 Concentration −7.9): 0.764 | Percent Growth (A498 [2]; Log 10 Concentration −7.9): 103% | Mean Optical Densities (A498 [2]; Log 10 Concentration −8.9): 0.826 | Percent Growth (A498 [2]; Log 10 Concentration −8.9): 112% | TGI (RXF 393): 2.96E−06 | Mean Optical Densities (RXF 393; Log 10 Concentration −4.9): 0.017 | Percent Growth (RXF 393; Log 10 Concentration −4.9): −91% | Mean Optical Densities (RXF 393; Log 10 Concentration −5.9): 0.909 | Percent Growth (RXF 393; Log 10 Concentration −5.9): 54% | Mean Optical Densities (RXF 393; Log 10 Concentration −6.9): 1.727 | Percent Growth (RXF 393; Log 10 Concentration −6.9): 116% | Mean Optical Densities (RXF 393; Log 10 Concentration −7.9): 1.301 | Percent Growth (RXF 393; Log 10 Concentration −7.9): 84% | Mean Optical Densities (RXF 393; Log 10 Concentration −8.9): 1.327 | Percent Growth (RXF 393; Log 10 Concentration −8.9): 86% | TGI (TK-10): >1.26E−05 | Mean Optical Densities (TK-10; Log 10 Concentration −4.9): 0.239 | Percent Growth (TK-10; Log 10 Concentration −4.9): 13% | Mean Optical Densities (TK-10; Log 10 Concentration −5.9): 1.103 | Percent Growth (TK-10; Log 10 Concentration −5.9): 82% | Mean Optical Densities (TK-10; Log 10 Concentration −6.9): 1.334 | Percent Growth (TK-10; Log 10 Concentration −6.9): 100% | Mean Optical Densities (TK-10; Log 10 Concentration −7.9): 1.268 | Percent Growth (TK-10; Log 10 Concentration −7.9): 95% | Mean Optical Densities (TK-10; Log 10 Concentration −8.9): 1.356 | Percent Growth (TK-10; Log 10 Concentration −8.9): 102% | CC50 (TK-10; read-out: LC50 (the source's name)): > 12.6 µM | reducing cell growth ([3]; first set of tests, 2 days exposure, all cell lines tested): effective in reducing cell growth against almost all the cell lines tested | reduction of growth ([3]; leukemic, melanoma and ovarian cancer cell lines, 2 days exposure): more than 50% | sensitivity relative to all the cell lines tested (mean graph, FIG. 2) ([3]; most leukemic and melanoma cell lines, SNB-75, U251, PC-3, A498, CAKI-1, SN12C, NCI-H522, 2 days): especially sensitive
